This passage reports IC50 results from US12649751B2 (Arcus Biosciences, Inc., priority 2022, dated 2026).

This assay deals with HPK1 (Homo sapiens, UniProt Q92918). Briefly: HPK1 Biochemical Assay (ADP-Glo luminescence; low ATP 10 μM or high ATP 200 μM). The following applies: 2 nM HPK1, 10 μM ATP; read-out: Biochemical Potency (low ATP). As for the experimental part: Dose-response assays were performed in Corning® Low Volume 384-well assay plates containing 100 nL of 22 serial 2-fold compound dilutions. Wells containing DMSO alone were used as negative control. A kinase mixture (5 μL) containing 2 nM HPK1 (or 5 nM for high ATP assay) in assay buffer (50 mM Hepes pH 7.4, 10 mM MgCl2, 0.01% Brij-15, 0.01% bovine serum albumin, and 1 mM dithiothreitol) was added to the assay plates and incubated at 25° C. for 1 hour. Wells without HPK1 were used as positive control. A […] of 10 μM ATP (or 200 μM for high ATP) and 0.2 μg/μL […] was then added to the wells, resulting in a 10 μL total reaction volume. Following incubation of the assay plates at 25° C. for 1 hour, 10 μL of ADP-Glo reagent was added to the wells and the plates were incubated at 25° C. for a further 40 minutes (or 1 hour for high ATP assay). Finally, 20 μL of Kinase Detection Reagent was added, and the plates were incubated for another 30 minutes at 25° C. An Envision plate reader was then used to detect the luminescence signals. IC50 values were determined by fitting the data to a standard 4-parameter logistic equation. The results are summarized in the Biochemical Potency columns of Tables 4 and 5 below (Biochemical Potency (high ATP); Biochemical Potency (low ATP)).
Chain of HPK1 (Q92918 whole entry, species assumed): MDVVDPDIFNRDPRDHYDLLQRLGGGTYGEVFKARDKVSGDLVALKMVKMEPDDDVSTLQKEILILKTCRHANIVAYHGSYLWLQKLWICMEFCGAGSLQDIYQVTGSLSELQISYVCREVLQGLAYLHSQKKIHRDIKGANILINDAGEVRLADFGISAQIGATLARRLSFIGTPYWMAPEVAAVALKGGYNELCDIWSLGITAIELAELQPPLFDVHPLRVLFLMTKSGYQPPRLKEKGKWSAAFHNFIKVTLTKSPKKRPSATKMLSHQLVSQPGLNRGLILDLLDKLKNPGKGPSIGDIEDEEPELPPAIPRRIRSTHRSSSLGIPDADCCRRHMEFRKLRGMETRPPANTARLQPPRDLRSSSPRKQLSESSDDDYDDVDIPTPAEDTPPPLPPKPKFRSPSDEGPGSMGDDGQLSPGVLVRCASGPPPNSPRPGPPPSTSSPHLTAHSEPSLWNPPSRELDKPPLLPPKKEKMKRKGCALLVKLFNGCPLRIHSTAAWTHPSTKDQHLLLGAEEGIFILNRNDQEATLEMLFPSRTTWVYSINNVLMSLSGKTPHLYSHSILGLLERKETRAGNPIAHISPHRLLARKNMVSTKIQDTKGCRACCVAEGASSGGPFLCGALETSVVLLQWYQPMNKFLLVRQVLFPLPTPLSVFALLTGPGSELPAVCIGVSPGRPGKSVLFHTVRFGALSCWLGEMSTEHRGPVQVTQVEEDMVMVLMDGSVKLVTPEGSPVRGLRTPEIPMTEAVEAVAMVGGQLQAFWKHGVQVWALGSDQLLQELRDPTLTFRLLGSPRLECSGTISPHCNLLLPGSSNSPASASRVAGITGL
A general note: ADP-Glo turns the ADP formed in a reaction into a luminescent signal.
Take `Cc1ccc(Nc2cc3nc(-c4cnccn4)sc3cn2)nc1CN1CCCC1` [Example 56, 5-Methyl-N-[2-(pyrazin-2-yl)-[1,3]thiazolo[5,4-c]pyridin-6-yl]-6-[(pyrrolidin-1-yl)methyl]pyridin-2-amine]: the IC50 is 0.1 to 1 µM. The result for `Cc1ccc(Nc2cc3nc(-c4cncnc4)sc3cn2)nc1CN1CCCC1` [Example 58, 5-Methyl-N-[2-(pyrimidin-5-yl)-[1,3]thiazolo[5,4-c]pyridin-6-yl]-6-[(pyrrolidin-1-yl)methyl]pyridin-2-amine] reads 0.1 to 1 µM. The result for `Cc1cccnc1-c1nc2cc(Nc3ccc(C(F)(F)F)c(CN4CCCC4)n3)ncc2s1` [Example 59, N-[2-(3-Methylpyridin-2-yl)-[1,3]thiazolo[5,4-c]pyridin-6-yl]-6-[(pyrrolidin-1-yl)methyl]-5-(trifluoromethyl)pyridin-2-amine] reads 0.1 to 1 µM. As for `Cc1cccnc1-c1nc2cc(Nc3ccc(F)c(CN4CCCC4)n3)ncc2s1` [Example 61, 5-Fluoro-N-[2-(3-methylpyridin-2-yl)-[1,3]thiazolo[5,4-c]pyridin-6-yl]-6-[(pyrrolidin-1-yl)methyl]pyridin-2-amine], the IC50 is < 0.1 µM. The result for `Cc1ccc(Nc2cc3nc(-c4ncccc4C)sc3cn2)nc1CCN1CCCC1` [Example 62, 5-Methyl-N-[2-(3-methylpyridin-2-yl)-[1,3]thiazolo[5,4-c]pyridin-6-yl]-6-[2-(pyrrolidin-1-yl)ethyl]pyridin-2-amine] reads 0.1 to 1 µM.

For the compound `Cc1cccnc1-c1nc2cc(Nc3ccc(N4CCOCC4)c(CN4CCCCC4)n3)ncc2s1` [Example 64, N-[2-(3-Methylpyridin-2-yl)-[1,3]thiazolo[5,4-c]pyridin-6-yl]-5-(morpholin-4-yl)-6-[(piperidin-1-yl)methyl]pyridin-2-amine], the IC50 was < 0.1 µM. With `Cc1cccnc1-c1nc2cc(Nc3ccc(C)c(N4C[C@H](N)C[C@@H]4CO)n3)ncc2s1` [Example 67, [(2R,4R)-4-Amino-1-(3-methyl-6-{[2-(3-methylpyridin-2-yl)-[1,3]thiazolo[5,4-c]pyridin-6-yl]amino}pyridin-2-yl)pyrrolidin-2-yl]methanol] the figure was < 0.1 µM; with `Cc1cccnc1-c1nc2cc(Nc3ccc(C)c(N4C[C@@H](N)C[C@@H]4CO)n3)ncc2s1` [Example 68, [(4S)-4-Amino-1-(3-methyl-6-{[2-(3-methylpyridin-2-yl)-[1,3]thiazolo[5,4-c]pyridin-6-yl]amino}pyridin-2-yl)pyrrolidin-2-yl]methanol], < 0.1 µM. As for `Cc1cccnc1-c1nc2cc(Nc3ccc(C)c(N4CCC[C@H]4CN)n3)ncc2s1` [Example 72, 6-[(2S)-2-(Aminomethyl)pyrrolidin-1-yl]-5-methyl-N-[2-(3-methylpyridin-2-yl)-[1,3]thiazolo[5,4-c]pyridin-6-yl]pyridin-2-amine], the IC50 is < 0.1 µM.

Regarding `Cc1cc(Nc2cc3nc(-c4ccnc(C)c4)sc3cn2)nc(N2CCC(C)(N)C2)c1` (stereo not shown) [Example 73, 6-(3-Amino-3-methylpyrrolidin-1-yl)-4-methyl-N-[2-(2-methylpyridin-4-yl)-[1,3]thiazolo[5,4-c]pyridin-6-yl]pyridin-2-amine], the IC50 is < 0.1 µM.

Turning to `Cc1cccnc1-c1nc2cc(Nc3ccc(C)c(N4CC[C@H](N)C4)n3)ncc2s1` [Example 75, 6-[(3S)-3-Aminopyrrolidin-1-yl]-5-methyl-N-[2-(3-methylpyridin-2-yl)-[1,3]thiazolo[5,4-c]pyridin-6-yl]pyridin-2-amine], the IC50 was < 0.1 µM. The result for `Cc1cccnc1-c1nc2cc(Nc3ccc(C)c(N4C[C@H](O)C[C@H]4CO)n3)ncc2s1` [Example 77, (3R,5S)-5-(Hydroxymethyl)-1-(3-methyl-6-{[2-(3-methylpyridin-2-yl)-[1,3]thiazolo[5,4-c]pyridin-6-yl]amino}pyridin-2-yl)pyrrolidin-3-ol] reads < 0.1 µM; that for `Cc1cccnc1-c1nc2cc(Nc3cc(N4C[C@@H]5C[C@H]4CN5)ccn3)ncc2s1` [Example 86, 4-[(1S,4S)-2,5-Diazabicyclo[2.2.1]heptan-2-yl]-N-[2-(3-methylpyridin-2-yl)-[1,3]thiazolo[5,4-c]pyridin-6-yl]pyridin-2-amine], > 5 µM; that for `Cc1cccnc1-c1nc2cc(Nc3cccc(N4C[C@H]5C[C@@H]4CN5C)n3)ncc2s1` [Example 91, 6-[(1R,4R)-5-Methyl-2,5-diazabicyclo[2.2.1]heptan-2-yl]-N-[2-(3-methylpyridin-2-yl)-[1,3]thiazolo[5,4-c]pyridin-6-yl]pyridin-2-amine], < 0.1 µM. With `Cc1cccnc1-c1nc2cc(Nc3cccc(N4CCN(C)[C@@H](C)C4)n3)ncc2s1` [Example 94, 6-[(3S)-3,4-Dimethylpiperazin-1-yl]-N-[2-(3-methylpyridin-2-yl)-[1,3]thiazolo[5,4-c]pyridin-6-yl]pyridin-2-amine] the figure was < 0.1 µM; with `Cc1cccnc1-c1nc2cc(Nc3cccc(N4CCN(C)C[C@@H]4C)n3)ncc2s1` [Example 95, 6-[(2S)-2,4-Dimethylpiperazin-1-yl]-N-[2-(3-methylpyridin-2-yl)-[1,3]thiazolo[5,4-c]pyridin-6-yl]pyridin-2-amine], 1 to 5 µM. The result for `Cc1cccnc1-c1nc2cc(Nc3cccc(N4CC5CC(C4)N5C)n3)ncc2s1` [Example 98, 6-{6-Methyl-3,6-diazabicyclo[3.1.1]heptan-3-yl}-N-[2-(3-methylpyridin-2-yl)-[1,3]thiazolo[5,4-c]pyridin-6-yl]pyridin-2-amine] reads < 0.1 µM. On to `Cc1cccnc1-c1nc2cc(Nc3cccc(N4C5CC4CN(C)C5)n3)ncc2s1` [Example 99, 6-{3-Methyl-3,6-diazabicyclo[3.1.1]heptan-6-yl}-N-[2-(3-methylpyridin-2-yl)-[1,3]thiazolo[5,4-c]pyridin-6-yl]pyridin-2-amine], for which the IC50 is 1 to 5 µM. With `Cc1cccnc1-c1nc2cc(Nc3cccc(N4C[C@H](C)N(C)[C@@H](C)C4)n3)ncc2s1` [Example 102, N-[2-(3-Methylpyridin-2-yl)-[1,3]thiazolo[5,4-c]pyridin-6-yl]-6-[(3S,5S)-3,4,5-trimethylpiperazin-1-yl]pyridin-2-amine] the figure was 0.1 to 1 µM; with `Cc1cccnc1-c1nc2cc(Nc3cccc(N4CCN(C)C[C@H]4C)n3)ncc2s1` [Example 103, 6-[(2R)-2,4-Dimethylpiperazin-1-yl]-N-[2-(3-methylpyridin-2-yl)-[1,3]thiazolo[5,4-c]pyridin-6-yl]pyridin-2-amine], 0.1 to 1 µM. With `Cc1cccnc1-c1nc2cc(Nc3cccc(N4CCN(C)[C@H](C)C4)n3)ncc2s1` [Example 104, 6-[(3R)-3,4-Dimethylpiperazin-1-yl]-N-[2-(3-methylpyridin-2-yl)-[1,3]thiazolo[5,4-c]pyridin-6-yl]pyridin-2-amine] the figure was < 0.1 µM; with `Cc1cccnc1-c1nc2cc(Nc3ccc(C)c(N4C[C@H]5CC[C@@H](C4)[C@H]5O)n3)ncc2s1` [Example 106, (1R,5S,8S)-3-(3-Methyl-6-{[2-(3-methylpyridin-2-yl)-[1,3]thiazolo[5,4-c]pyridin-6-yl]amino}pyridin-2-yl)-3-azabicyclo[3.2.1]octan-8-ol], < 0.1 µM.
